Drawing on BindingDB's records for doi:10.1021/jm9806650 (Institute of Chemical Technology, 1999), this text covers IC50 for 5 molecules.

The experiment can be described thus: The compound was tested in vitro for inhibition of HIV-1 replication.
For `COc1ccc(-c2c3n(c4c(=O)oc5cc(OS(=O)(=O)O)c(OC)cc5c24)CCc2cc(OC)c(OC)cc2-3)cc1O`, 12 µM corresponded to half-maximal inhibition (IC50).
Molecule `COc1ccc(-c2c3c4cc(OC)c(O)cc4oc(=O)c3n3ccc4cc(O)c(OC)cc4c23)cc1O` [3,10-Dihydroxy-13-(3-hydroxy-4-methoxy-phenyl)-2,11-dimethoxy-5-oxa-6b-aza-dibenzo[a,i]fluoren-6-one] had an IC50 of 1 µM.
The molecule `COc1ccc(-c2c3c4cc(OC)c(O)cc4oc(=O)c3n3ccc4c(OC)c(OC)c(OC)cc4c23)cc1O` [3-Hydroxy-13-(3-hydroxy-4-methoxy-phenyl)-2,9,10,11-tetramethoxy-5-oxa-6b-aza-dibenzo[a,i]fluoren-6-one] yielded an IC50 of 20 µM.
For `COc1ccc(-c2c3n(c4c(=O)oc5cc(O)c(OC)cc5c24)CCc2c-3cc(OC)c(OC)c2OC)cc1O` [3-Hydroxy-13-(3-hydroxy-4-methoxy-phenyl)-2,9,10,11-tetramethoxy-7,8-dihydro-5-oxa-6b-aza-dibenzo[a,i]fluoren-6-one], 18 µM corresponded to half-maximal inhibition (IC50).
For `COc1ccc(-c2c3n(c4c(=O)oc5cc(OS(=O)(=O)O)c(OC)cc5c24)C(O)Cc2c-3cc(OC)c(OC)c2OC)cc1O` (stereo not given) [7-Hydroxy-13-(3-hydroxy-4-methoxy-phenyl)-2,9,10,11-tetramethoxy-7,8-dihydro-5-oxa-6b-aza-dibenzo[a,i]fluoren-6-one sodium sulfonate] the value was 20 µM.
